Experimental data: US7795213B2 (POSCO, priority 2002, dated 2010)
Where no end group is shown, it is not given here.

Tests used:
[1] = target: T1, VEGF/Aβ interaction (GST-heparin-binding domain, biotinylated Aβ1-42) (Homo sapiens, UniProt P15692); assay: Heparin inhibition of biotinylated Aβ1-42 binding to immobilized GST-heparin-binding domain; conditions: GST-heparin-binding domain 100 nM immobilized; biotinylated Aβ1-42 50 nM
T1 construct: made in house
T1 sequence (P15692 137-191 isoform P15692-4): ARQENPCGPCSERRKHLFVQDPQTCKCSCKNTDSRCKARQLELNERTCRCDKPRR
Protocol: After removing unbound biotinylated Aβ, the bound peptide was determined with steptavidin conjugated with horse radish peroxidase.

MDA-MB-231 tumor cells = assay: Effect of Aβ peptides on binding of VEGF to tumor cells that express neuropilin-1; type: cell-based; conditions: data not shown
endothelial cells [2] = assay: Effect of Aβ peptides on binding of VEGF with the receptors on endothelial cells; type: cell-based; conditions: 1 μM; data not shown
endothelial cells [3] = assay: Effect of Aβ peptides on proliferation of endothelial cells induced by VEGF; type: cell-based; conditions: 1 μM; data not shown
Aβ [4] = target: T2, Aβ (Homo sapiens, UniProt P05067); assay: Binding of growth factors to Aβ; conditions: among NGF, bFGF, PDGF, VEGF and midkine
T2 construct: Aβ (Aβ) is the major component of senile plaques and is derived from the amyloid precursor protein by proteolytic cleavage

Aβ [5] = target: T2, Aβ; assay: Inhibition of the aggregation of Aβ by Aβ-VEGF binding inhibitors; type: biochemical
[6] = target: T3, VEGF/Aβ interaction (VEGF165, biotinylated Aβ) (Homo sapiens, UniProt P15692); assay: Inhibition of biotinylated Aβ binding to coated VEGF165; conditions: VEGF165 50 ng/well; biotinylated Aβ 100 ng/ml; increasing concentration of test compound
T3 sequence (P15692 27-191 isoform P15692-4 limits assumed): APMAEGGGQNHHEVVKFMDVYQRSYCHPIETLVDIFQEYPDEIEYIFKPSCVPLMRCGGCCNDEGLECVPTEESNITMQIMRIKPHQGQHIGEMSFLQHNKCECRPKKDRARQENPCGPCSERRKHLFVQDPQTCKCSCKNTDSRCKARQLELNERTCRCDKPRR
Protocol: Biotinylated Aβ (100 ng/ml) was added to each well in the presence of increasing concentration of test compound. After 2 hours, each well was rinsed several times with 0.05% Tween in PBS. The bound biotinylated Aβ was determined with steptavidin conjugated with horse radish peroxidase.

Aβ1-42 = target: T4, Aβ1-42 (Homo sapiens, UniProt P05067); assay: Thioflavin T assay of Aβ aggregation; type: biochemical; conditions: 24 hours
T4 construct: Aβ1-40, Aβ1-42, and Aβ40-1 (BACHEM, Bubendorf, Switzerland) were immobilized on a CM5 sensor chip; purchased BACHEM
Protocol: 10 μM of thioflavin T was added to the mixture and sufficiently mixed. Then, the fluorescence of the mixture was measured at Ex=444 nm and Em=485 nm, and then, compared with that of control of Aβ incubated alone, to determine the affection on aggregation of Aβ.
50 μM Aβ was incubated at 37° C. for 24 hours together with triamterene of 0 μM, 4 μM, 20 μM or 100 μM, respectively, to generate aggregation of Aβ. Then, the degree of aggregation was determined by the thioflavin T assay as illustrated in Example 11.

[7] = target: T5, Aβ-VEGF binding (VEGF, biotinylated Aβ1-42) (Homo sapiens, UniProt P15692); assay: Aβ-VEGF binding in presence of triamterene; conditions: 100 nM VEGF, 100 nM biotinylated Aβ1-42, 37° C., 24 hours
T5 sequence (P15692 27-191 isoform P15692-4 limits assumed): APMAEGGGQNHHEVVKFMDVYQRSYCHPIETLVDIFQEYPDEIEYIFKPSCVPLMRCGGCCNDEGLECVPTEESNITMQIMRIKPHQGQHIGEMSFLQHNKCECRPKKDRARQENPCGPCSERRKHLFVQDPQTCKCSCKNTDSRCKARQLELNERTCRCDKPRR
Protocol: The level of the formation of the Aβ-VEGF binding was measured and compared with that of control without triamterene.

VEGF receptor, KDR-Fc = VEGF receptor, KDR-Fc (Homo sapiens, UniProt P35968); conditions: VEGF 12 nM immobilized; 0.3 nM KDR-Fc
Protocol: After removing unbound KDR-Fc, the bound KDR-Fc was determined by binding of mouse anti-Fc antibody followed by anti-mouse antibody conjugated with horse radish peroxidase.

immobilized VEGF165 = target: T6, immobilized VEGF165 (Homo sapiens, UniProt P15692); assay: Determination of VEGF binding region in Aβ, competition by Aβ fragments; conditions: Aβ1-42 50 nM; 30 μM or 50 μM Aβ fragment
T6 sequence (P15692 27-191 isoform P15692-4): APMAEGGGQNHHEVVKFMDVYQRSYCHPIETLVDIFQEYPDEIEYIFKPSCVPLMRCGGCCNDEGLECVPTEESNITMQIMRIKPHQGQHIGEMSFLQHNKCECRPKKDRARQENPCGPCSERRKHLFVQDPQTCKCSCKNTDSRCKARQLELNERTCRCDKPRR
Protocol: After removing unbound Aβ, the bound Aβ was determined by binding of rabbit anti-Aβ antibody followed by anti-rabbit antibody conjugated with horse radish peroxidase. […] The bound biotinylated Aβ was determined with streptavidin conjugated with horse radish peroxidase.

Aβ-VEGF binding = target: T7, Aβ-VEGF binding (Homo sapiens, UniProt P15692); assay: Search for an inhibitor of Aβ-VEGF binding
T7 construct: Aβ (Aβ) is the major component of senile plaques and is derived from the amyloid precursor protein by proteolytic cleavage
T7 sequence (P15692 27-191 isoform P15692-4 limits assumed): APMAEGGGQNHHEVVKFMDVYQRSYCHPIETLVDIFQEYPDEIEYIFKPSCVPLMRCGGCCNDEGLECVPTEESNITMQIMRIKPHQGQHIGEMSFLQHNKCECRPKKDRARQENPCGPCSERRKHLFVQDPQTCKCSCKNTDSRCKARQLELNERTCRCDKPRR

PC12 cells [8] = assay: DCF fluorescence, generation of reactive oxygen species by Aβ; type: cell-based; conditions: PC12 cells 3 hours
Protocol: 5 μM VEGF165 or 5 μM GST-HBD and 5 μM Aβ1-42 were mixed and incubated at 37° C. for 24 hours. The mixture was added to PC12 cells (6×10^4, cells/well, kindly provided by Dr. Pann-Ghill Suh), and then left for reaction at 37° C. for 3 hours. Then, 100 μM of DCF solution was added to the resulted mixture, reacted for 30 minutes, and then washed with PBS (phosphate-buffered saline). The obtained cells were observed through a fluorescent microscope, and DCF fluorescence was measured, to calculate the level of generation of the reactive oxygen species.

PC12 cells [9] = assay: Ethidium fluorescence assay, cytotoxicity of Aβ; type: cell-based; conditions: 5 μM Aβ1-42 incubated with VEGF or GST-HBD at 37° C. for 24 hours; PC12 cells 24 hours
Protocol: The mixture was added to PC12 cells (2×10^4, cells/well, kindly provided by Dr. Pann-Ghill Suh), and then left for reaction at 37° C. for 24 hours. Then, equal volume of 4 μM ethidium homodimer-1 was added to the resulted mixture, and reacted for 30 minutes. Thereafter, the fluorescence of the mixture was measured at Ex=530 nm and Em=645 nm, and then, compared with that of control of non-treated PC12 cells, to determine the cytotoxicity of Aβ.

PC12 cells [10] = assay: MTT assay, cytotoxicity of Aβ; type: cell-based; parameters: dose or concentration left out as unconfirmed; conditions: Aβ1-42 incubated with VEGF165 or GST-HBD at 37° C. for 24 hours; PC12 cells 24 hours
Protocol: The mixture was added to PC12 cells (2×10^4, cells/well, kindly provided by Dr. Pann-Ghill Suh), and then left for reaction at 37° C. for 24 hours. Then, 1/10 volume of 5 mg/ml MTT solution was added to the resulted mixture, and reacted for 2 hours. The obtained cells were lysed by 25% dimethylformamide/10% SDS. Thereafter, the absorbance of the lysate was measured at 570 nm, and then, compared with that of control of non-treated PC12 cells, to determine the reduction of MTT, and thereby determining the viability of the cells.

Aβ [11] = target: T2, Aβ; assay: Determination of Aβ binding region in VEGF, immobilized GST-fusion proteins; conditions: GST-fusion proteins 200 nM immobilized; 200 nM Aβ
Protocol: The purified proteins were analyzed with 12% SDS-polyacrylmide gel electrophoresis. […] After blocking nonspecific binding sites with 3% BSA/PBS, 200 nM of Aβ was added to each well and allowed to bind to immobilized proteins. Unbound Aβ was removed and the bound Aβ was determined with rabbit anti-Aβ antibody followed by anti-rabbit antibody conjugated with horse radish peroxidase.

Chain of VEGF receptor, KDR-Fc (P35968 with tags, fused parts or gaps limits assumed): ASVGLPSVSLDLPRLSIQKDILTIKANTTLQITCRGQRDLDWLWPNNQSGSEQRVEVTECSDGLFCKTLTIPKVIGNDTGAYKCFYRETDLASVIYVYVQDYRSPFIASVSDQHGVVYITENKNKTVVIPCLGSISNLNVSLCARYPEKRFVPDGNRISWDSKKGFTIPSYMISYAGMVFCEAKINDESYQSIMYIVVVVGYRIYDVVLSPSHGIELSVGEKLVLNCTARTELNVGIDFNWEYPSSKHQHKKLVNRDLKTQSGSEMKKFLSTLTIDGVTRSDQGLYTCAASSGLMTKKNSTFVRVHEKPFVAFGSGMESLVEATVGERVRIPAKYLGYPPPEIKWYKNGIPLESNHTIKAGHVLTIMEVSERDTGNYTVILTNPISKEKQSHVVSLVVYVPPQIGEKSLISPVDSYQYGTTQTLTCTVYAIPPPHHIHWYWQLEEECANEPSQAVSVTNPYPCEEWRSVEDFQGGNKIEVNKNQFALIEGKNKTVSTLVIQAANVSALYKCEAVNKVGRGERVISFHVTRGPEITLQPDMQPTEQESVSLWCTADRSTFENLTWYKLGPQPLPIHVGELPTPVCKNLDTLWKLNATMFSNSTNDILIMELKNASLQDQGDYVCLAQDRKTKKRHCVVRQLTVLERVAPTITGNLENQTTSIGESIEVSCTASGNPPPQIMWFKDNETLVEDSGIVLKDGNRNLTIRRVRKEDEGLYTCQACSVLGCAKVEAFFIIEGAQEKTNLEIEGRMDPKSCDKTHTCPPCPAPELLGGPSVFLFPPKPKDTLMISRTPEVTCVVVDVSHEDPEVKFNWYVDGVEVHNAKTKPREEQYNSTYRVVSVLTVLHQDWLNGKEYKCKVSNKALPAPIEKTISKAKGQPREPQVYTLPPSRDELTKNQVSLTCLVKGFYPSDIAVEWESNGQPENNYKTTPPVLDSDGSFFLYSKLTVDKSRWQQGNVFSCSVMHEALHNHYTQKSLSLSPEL

**Q.** For heparin, which “IC50, inhibition of binding of biotinylated Aβ1-42 to heparin-binding domain” value [1] is on record?
**A.** ~0.025 µg/mL

**Q.** “Aβ1-40: β-amyloid peptide residues 1-40 (BACHEM)” was tested. Which “effect on the binding of VEGF to MDA-MB-231 tumor cells” value (MDA-MB-231 tumor cells) did it give?
**A.** Neither did Aβ1-40 nor Aβ1-42 affect

**Q.** And the “effect on the binding of VEGF with the receptors on endothelial cells” value (endothelial cells [2])?
**A.** Neither Aβ1-40 nor Aβ1-42, even at a high concentration (1 μM), affected

**Q.** And the “effect on the proliferation of endothelial cells induced by VEGF” value (endothelial cells [3])?
**A.** Neither Aβ1-40 nor Aβ1-42, even at a high concentration (1 μM), affected

**Q.** With bFGF: basic fibroblast growth factor as the molecule, how does the “binding of growth factor to Aβ” value (Aβ [4]) read?
**A.** only VEGF and midkine bound to A

**Q.** Which results are given for `O=C(O[C@@H]1Cc2c(O)cc(O)cc2O[C@@H]1c1cc(O)c(O)c(O)c1)c1cc(O)c(O)c(O)c1` [EGCG, epigallocatechin gallate, reference compound]?
**A.** activity to inhibit the aggregation of Aβ by itself (Aβ [5]): additional activity to inhibit the aggregation of Aβ by itself; inhibition of binding of Aβ to VEGF [6]: inhibition

**Q.** Which “affection on aggregation of Aβ (thioflavin T)” value (Aβ1-42; 50 μM Aβ, 37° C., triamterene 0, 4, 20 or 100 μM) does the source give for `Nc1nc(N)c2nc(-c3ccccc3)c(N)nc2n1` [triamterene] here?
**A.** no affection on aggregation of Aβ regardless of the concentration

**Q.** And the “inhibition of the Aβ-VEGF binding” value [7]?
**A.** concentration-dependently inhibits the binding between Aβ and VEGF

**Q.** And the “affection on the VEGF-VEGF receptor binding” value (VEGF receptor, KDR-Fc)?
**A.** no affection on the VEGF-VEGF receptor binding regardless of the concentration

**Q.** Which “binding of growth factor to Aβ” value (Aβ [4]) does the source give for NGF: nerve growth factor here?
**A.** only VEGF and midkine bound to A

**Q.** With “Aβ25-35: partial fragment of Aβ, residues 25-35 of SEQ ID NO:4 (GSNRGAIIGLM; listed as Homo sapiens)” as the molecule, how does the “competition with Aβ for binding to immobilized VEGF165” value (immobilized VEGF165) read?
**A.** competes with Aβ for its binding to immobilized VEGF165

**Q.** “Aβ1-42: β-amyloid peptide 1-42, SEQ ID NO:4” was tested. Which “effect on the binding of VEGF to MDA-MB-231 tumor cells” value (MDA-MB-231 tumor cells) did it give?
**A.** Neither did Aβ1-40 nor Aβ1-42 affect

**Q.** What about the “effect on the binding of VEGF with the receptors on endothelial cells” value (endothelial cells [2]) of the same molecule?
**A.** Neither Aβ1-40 nor Aβ1-42, even at a high concentration (1 μM), affected

**Q.** What about the “effect on the proliferation of endothelial cells induced by VEGF” value (endothelial cells [3]) of the same molecule?
**A.** Neither Aβ1-40 nor Aβ1-42, even at a high concentration (1 μM), affected

**Q.** For PDGF, which “binding of growth factor to Aβ” value (Aβ [4]) is on record?
**A.** only VEGF and midkine bound to A

**Q.** For fucoidan, which “activity to inhibit the aggregation of Aβ by itself” value (Aβ [5]) is on record?
**A.** additional activity to inhibit the aggregation of Aβ by itself

**Q.** What about the “inhibitor of Aβ-VEGF binding (search)” value (Aβ-VEGF binding) of the same molecule?
**A.** searched as an inhibitor of Aβ-VEGF binding

**Q.** “HBD: full heparin-binding domain of VEGF165 (SEQ ID NO:2) fused to GST (ARQENPCGPCSERRKHLFVQDPQTCKCSCKNTDSRCKARQLELNERTCRCDKPRR; cysteine pairing not given here; also: fused to GST)” was tested. Which “generation of the reactive oxygen species, treatment alone” value (PC12 cells [8]; 5 μM VEGF165 or 5 μM GST-HBD alone) did it give?
**A.** no effect on the generation of the reactive oxygen species

**Q.** What about the “generation of the reactive oxygen species by Aβ, treatment together with Aβ” value (PC12 cells [8]; 5 μM VEGF165 or 5 μM GST-HBD with 5 μM Aβ1-42) of the same molecule?
**A.** inhibitory effect on the generation of the reactive oxygen species by Aβ

**Q.** And the “inhibition of aggregation of Aβ (thioflavin T)” value (Aβ1-42; 50 μM Aβ1-42, 37° C., VEGF or GST-HBD at various concentrations)?
**A.** inhibit aggregation of Aβ depending on the concentration

**Q.** And the “inhibition of the cytotoxicity of Aβ (ethidium homodimer-1 fluorescence)” value (PC12 cells [9])?
**A.** inhibit the cytotoxicity of Aβ depending on the concentration

**Q.** What about the “inhibition of the cytotoxicity of Aβ (MTT reduction)” value (PC12 cells [10]) of the same molecule?
**A.** exhibits the activity to inhibit the cytotoxicity of Aβ

**Q.** How did the “binding of Aβ to immobilized GST-fusion protein” value (Aβ [11]) turn out when “GST-CHBD: C-terminal half (amino acid 29-55) of heparin-binding domain fused to GST (CKNTDSRCKARQLELNERTCRCDKPRR; cysteine pairing not given here; also: fused to GST)” was run?
**A.** Aβ binds to C-terminal sub-domain of heparin-binding domain

**Q.** How did the “inhibition of binding of Aβ to VEGF” value [6] turn out when tannic acid was run?
**A.** inhibition

B1: midkine: heparin-binding, neurotrophic growth factor whose expression occurs mainly in fetus (protein)
chain: VAKKKDKVKKGGPGSECAEWAWGPCTPSSKDCGVGFREGTCGAQTQRIRCRVPCNWKKEFGADCKYKFENWGACDGGTGTKVRQGTLKKARYNAQCQETIRVTKPCTPKTKAKAKAKKGKGKD
**Q.** How did the “binding of growth factor to Aβ” value (Aβ [4]) turn out when B1 was run?
**A.** bound to A
